Key:
[1] = test system: MOOVA (Monochoria); test: Preemergence weed control under flooded paddy conditions; format: in vivo, Monochoria vaginalis; conditions: rated 3-4 weeks after treatment
How it was run: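 Using flooded silt loam (water 1.5 to 3 cm deep), seeds sown in the top 0.5 cm were exposed preemergence to compound pipetted into the flood at about 0.0313 to 0.500 kg/ha. Effects were scored 0-9 by eye three to four weeks later.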

[2] = test system: CYPIR (Rice Flatsedge); test: as above; format: in vivo, Cyperus iria; conditions: rated 3-4 weeks after treatment
How it was run: (§1)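 Seeds or propagules sown in top 0.5 cm of silt loam soil, flooded 1.5 to 3 cm above surface throughout. Compound in 50/50 v/v aqueous/acetone pipetted into flood water at about 0.0313 to 0.500 kg/ha. Visual 0-9 rating versus control after three to four weeks in greenhouse.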

[3] = test system: GALAP (Galium); test: Postemergence herbicidal evaluation; format: in vivo, Galium aparine; conditions: postemergence
How it was run: (§2)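 Compound is applied as a foliar spray to seedlings about two weeks old, formulated in equal parts acetone and water with 0.5% TWEEN 20 and delivered at 40 psi to give about 0.0156–0.500 kg per hectare. Injury is rated visually 0–9 after four to five weeks.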

[4] = test system: ECHORC (Watergrass (Calif.)); test: Preemergence weed control under flooded paddy conditions; format: in vivo, Echinochloa oryzoides; conditions: rated 3-4 weeks after treatment
How it was run: as §1

[5] = test system: ABUTH (Velvetleaf); test: Preemergence herbicidal evaluation; format: in vivo, Abutilon theophrasti; conditions: rated 4-5 weeks after treatment
How it was run: (§3)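 In this greenhouse assay, monocot and dicot seeds are planted in soil and treated prior to emergence with an aqueous acetone spray (about 0.0156-0.500 kg/ha). Plants are assessed visually against control on a 0-9 scale after 4-5 weeks.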

[6] = test system: ECHORC (Watergrass (Calif.)); test: Postemergence weed control under flooded paddy conditions; format: in vivo, Echinochloa oryzoides; conditions: postemergence weeds, 3-4 weeks after treatment
How it was run: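 Weeds 3 to 5 cm tall and rice seedlings at the 1.5 to 2.5 leaf stage were flooded, with water held 1.5 to 3 cm above the soil. Compounds in 50/50 v/v aqueous/acetone went into the flood water at about 0.0313 to 0.500 kg/ha. Visual 0-9 ratings versus control were made 3 to 4 weeks later.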

[7] = test system: SETVI (Foxtail, Green); test: Postemergence herbicidal evaluation; format: in vivo, Setaria viridis; conditions: postemergence
How it was run: as §2

[8] = test system: TRZAWR (Wheat, Winter, cv Riband); test: Postemergence herbicidal evaluation; format: in vivo, Triticum aestivum; conditions: postemergence
How it was run: as §2

[9] = test system: SETVI (Foxtail, Green); test: Preemergence herbicidal evaluation; format: in vivo, Setaria viridis; conditions: rated 4-5 weeks after treatment
How it was run: as §3

[10] = test system: ZEAMX (Corn, Field); test: Preemergence herbicidal evaluation; format: in vivo, Zea mays; conditions: rated 4-5 weeks after treatment
How it was run: as §3

[11] = test system: SAGPY (Arrowhead (Pygmaea)); test: Postemergence weed control under flooded paddy conditions; format: in vivo, Sagittaria pygmaea; conditions: postemergence weeds, 3-4 weeks after treatment
From the text: Results of herbicide evaluation are expressed on a rating scale (0-9). The scale is based upon a visual observation of plant stand, vigor, malformation, size, chlorosis and overall plant appearance as compared with a control.
Plastic containers containing weeds which are 3 to 5 cm tall and rice seedlings at the 1.5 to 2.5 leaf stage are flooded with water. The water is maintained at 1.5 to 3 cm above the soil surface for the duration of the experiment. Test compounds are applied as aqueous/ acetone mixtures 50/50 v/v directly into the flood water to provide the equivalent of about 0.0313 to 0.500 kg/ha of active ingredient. The treated containers are placed on greenhouse benches and cared for in accordance with conventional greenhouse procedures. Three to four weeks after treatment, the test is terminated and each container is examined and herbicidal effect rated according to the rating system provided in Example 37. The compounds evaluated are reported by compound number given in Example 37.

[12] = test system: ECHCG (Barnyardgrass); test: Preemergence herbicidal evaluation; format: in vivo, Echinochloa crus-galli; conditions: rated 4-5 weeks after treatment
How it was run: as §3

Compound: C=CCN1C(=O)CSC1=Nc1cc(N2C(=O)C3=C(CCCC3)C2=O)c(F)cc1Cl [Compound 2, N-{5-[(3-allyl-4-oxo-2-thiazolidinylidene)amino]-4-chloro-2-fluorophenyl}-1-cyclohexene-1,2-dicarboximide]
- Herbicidal rating MOOVA ([1]; 0.0313 kg/ha): 4.0
- Herbicidal rating MOOVA ([1]; 0.0625 kg/ha): 9.0
- Herbicidal rating MOOVA ([1]; 0.1250 kg/ha): 9.0
- Herbicidal rating MOOVA ([1]; 0.2500 kg/ha): 9.0
- Herbicidal rating MOOVA ([1]; 0.5000 kg/ha): 9.0
- Herbicidal rating CYPIR ([2]; 0.0313 kg/ha): 0.0
- Herbicidal rating CYPIR ([2]; 0.0625 kg/ha): 0.0
- Herbicidal rating CYPIR ([2]; 0.1250 kg/ha): 0.0
- Herbicidal rating CYPIR ([2]; 0.2500 kg/ha): 0.0
- Herbicidal rating CYPIR ([2]; 0.5000 kg/ha): 1.0
- GALAP herbicidal rating ([3]; rate 0.0157 kg/ha): 4.0
- GALAP herbicidal rating ([3]; rate 0.0313 kg/ha): 8.0
- GALAP herbicidal rating ([3]; rate 0.0625 kg/ha): 4.0
- GALAP herbicidal rating ([3]; rate 0.1250 kg/ha): 4.0
- GALAP herbicidal rating ([3]; rate 0.2500 kg/ha): 4.0
- GALAP herbicidal rating ([3]; rate 0.5000 kg/ha): 4.0
- Herbicidal rating ECHORC ([4]; 0.0313 kg/ha): 2.0
- Herbicidal rating ECHORC ([4]; 0.0625 kg/ha): 2.0
- Herbicidal rating ECHORC ([4]; 0.1250 kg/ha): 7.0
- Herbicidal rating ECHORC ([4]; 0.2500 kg/ha): 8.0
- Herbicidal rating ECHORC ([4]; 0.5000 kg/ha): 9.0
- ABUTH preemergence herbicidal rating ([5]; rate 0.0313 kg/ha): 0.0
- ABUTH preemergence herbicidal rating ([5]; rate 0.0625 kg/ha): 0.0
- ABUTH preemergence herbicidal rating ([5]; rate 0.5000 kg/ha): 4.0
- Herbicidal rating ECHORC ([6]; rate 0.0313 kg/ha): 1.0
- Herbicidal rating ECHORC ([6]; rate 0.0625 kg/ha): 1.0
- Herbicidal rating ECHORC ([6]; rate 0.1250 kg/ha): 3.5
- Herbicidal rating ECHORC ([6]; rate 0.2500 kg/ha): 4.0
- Herbicidal rating ECHORC ([6]; rate 0.5000 kg/ha): 4.5
- SETVI herbicidal rating ([7]; rate 0.0157 kg/ha): 0.0
- SETVI herbicidal rating ([7]; rate 0.0313 kg/ha): 0.0
- SETVI herbicidal rating ([7]; rate 0.1250 kg/ha): 0.0
- SETVI herbicidal rating ([7]; rate 0.2500 kg/ha): 0.0
- SETVI herbicidal rating ([7]; rate 0.5000 kg/ha): 0.0
- TRZAWR herbicidal rating ([8]; rate 0.0157 kg/ha): 1.5
- TRZAWR herbicidal rating ([8]; rate 0.0313 kg/ha): 2.5
- TRZAWR herbicidal rating ([8]; rate 0.0625 kg/ha): 3.0
- TRZAWR herbicidal rating ([8]; rate 0.1250 kg/ha): 2.5
- TRZAWR herbicidal rating ([8]; rate 0.2500 kg/ha): 2.5
- TRZAWR herbicidal rating ([8]; rate 0.5000 kg/ha): 3.0
- SETVI preemergence herbicidal rating ([9]; rate 0.0313 kg/ha): 0.0
- SETVI preemergence herbicidal rating ([9]; rate 0.0625 kg/ha): 0.0
- SETVI preemergence herbicidal rating ([9]; rate 0.1250 kg/ha): 6.0
- SETVI preemergence herbicidal rating ([9]; rate 0.2500 kg/ha): 6.0
- SETVI preemergence herbicidal rating ([9]; rate 0.5000 kg/ha): 9.0
- ZEAMX preemergence herbicidal rating ([10]; rate 0.0313 kg/ha): 0.0
- ZEAMX preemergence herbicidal rating ([10]; rate 0.0625 kg/ha): 0.0
- ZEAMX preemergence herbicidal rating ([10]; rate 0.1250 kg/ha): 0.0
- ZEAMX preemergence herbicidal rating ([10]; rate 0.2500 kg/ha): 0.0
- ZEAMX preemergence herbicidal rating ([10]; rate 0.5000 kg/ha): 0.0
- Herbicidal rating SAGPY ([11]; rate 0.0313 kg/ha): 0.0
- Herbicidal rating SAGPY ([11]; rate 0.0625 kg/ha): 0.0
- Herbicidal rating SAGPY ([11]; rate 0.1250 kg/ha): 0.0
- Herbicidal rating SAGPY ([11]; rate 0.2500 kg/ha): 0.0
- Herbicidal rating SAGPY ([11]; rate 0.5000 kg/ha): 1.0
- ECHCG preemergence herbicidal rating ([12]; rate 0.0313 kg/ha): 0.0
- ECHCG preemergence herbicidal rating ([12]; rate 0.0625 kg/ha): 0.0
- ECHCG preemergence herbicidal rating ([12]; rate 0.1250 kg/ha): 4.0
- ECHCG preemergence herbicidal rating ([12]; rate 0.2500 kg/ha): 0.0
- ECHCG preemergence herbicidal rating ([12]; rate 0.5000 kg/ha): 8.0

From patent US20020137929A1, “1 - (3-heterocyclylphenyl) isothiourea, -isourea, -guanidine and -amidine herbicidal agents” (Intellectual Property Department, BASF Aktiengesellschaft, priority 1998, published 2002)
